# Reference: patent US20060046966A1, “Antipicornaviral compounds and compositions, their pharmaceutical uses, and materials for their synthesis” (Agouron Pharmaceuticals, Inc., priority 1998, published 2006)
# Read-outs that look alike come from different tables or passages of the source.
# Tests used:
# HRV (30) = assay: Antirhinoviral H1-HeLa cell culture assay, HRV serotype 30; type: cell-based; conditions: Human rhinovirus sp., H1-HeLa cells, XTT
# Description: (§1) In this cell protection assay, the ability of compounds to protect cells against HRV infection was measured by the XTT dye reduction method, which is described in Weislow et al., J. Natl. Cancer Inst. 1989, vol. 81, 577-586.
# (§2) H1-HeLa cells were infected with HRV-14 at a multiplicity of infection (m.o.i.) of 0.13 (virus particles/cell) or mock-infected with medium only. Infected or mock-infected cells were resuspended at 8×10^5 cells per mL, and incubated with appropriate concentrations of the compounds to be tested. Two days later, XTT/PMS was added to test plates and the amount of formazan produced was quantified spectrophotometrically at 450/650 nm. The EC50 value was calculated as the concentration of compound that increased the percentage of formazan production in compound-treated, virus-infected cells to 50% of that produced by compound-free, mock-infected cells. The 50% cytotoxic dose (CC50) was calculated as the concentration of compound that decreased the percentage of formazan produced in compound-treated, mock-infected cells to 50% of that produced by compound-free, mock-infected cells. The therapeutic index (TI) was calculated by dividing the CC50 value by the EC50 value. […]
# HRV (38) = assay: Antirhinoviral H1-HeLa cell culture assay, HRV serotype 38; type: cell-based; conditions: Human rhinovirus sp., H1-HeLa cells, XTT
# Description: as §1, §2
# HRV-14 = assay: Antirhinoviral H1-HeLa cell culture assay, HRV-14; type: cell-based, human rhinovirus; conditions: Rhinovirus B, HRV14, H1-HeLa, HRV serotype-14, H1-HeLa cells
# Outline: (§3)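 Antiviral EC50 comes from formazan production by infected, compound-treated H1-HeLa cells reaching 50% of the mock-infected, untreated level. Cells grown in MEM/10% FBS were infected at m.o.i. 0.13 and incubated with compound for two days before XTT/PMS addition.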
# [1] = tested on: Echovirus type 11 (EV 11); assay: Anti-echoviral cell culture assay, EV 11; type: cell-based; conditions: Enterovirus B, MRC5, 96 h; Strain EV-11; MRC-5 cells; four days; XTT; read-out: EC50
# Description: Echovirus type 11 (EV 11) and enterovirus type 70 (EV 70) were purchased from ATCC (Rockville, Md.). Virus stocks were propagated and antiviral assays were performed in MRC-5 cells (ATCC). Cells were grown in minimal essential medium with 10% fetal bovine serum (Life Technologies, Gaithersburg, Md.).
# The ability of compounds to protect cells against either EV 11 or EV 70 infection was measured by the XTT dye reduction method (Weislow et al., J. Natl. Cancer Inst. 1989, vol. 81, 577-586). MRC-5 cells were infected with EV 11 or EV 70 at an m.o.i. of 0.003 or 0.004, respectively, or mock-infected with medium only. Infected or uninfected cells were added at 1×10^4 cells per well and incubated with appropriate concentrations of compound. Four days later, XTT/PMS was added to test plates, and the amount of formazan produced was quantified spectrophotometrically at 450/650 nm. The EC50 was calculated as the concentration of compound that increased the formazan production in compound-treated, virus-infected cells to 50% of that produced by compound-free, uninfected cells. The 50% cytotoxic dose (CC50) was calculated as the concentration of compound that decreased formazan production in compound-treated, uninfected cells to 50% of that produced in compound-free, uninfected cells. The therapeutic index (TI) was calculated by dividing the CC50 by the EC50.
# The compounds were tested against control compounds Pirodavir (obtained from Janssen Pharmaceuticals) and Pleconaril (prepared according to Diana et al., J. Med. Chem. 1995, vol. 38, 1355). Antiviral data obtained for the test compounds against strain EV 11 and EV 70 are shown below in Table 5.
# HRV (3) = assay: Antirhinoviral H1-HeLa cell culture assay, HRV serotype 3; type: cell-based, human rhinovirus; conditions: Human rhinovirus sp., H1-HeLa, H1-HeLa cells, XTT
# Description: as §1
# (§4) H1-HeLa cells were infected with HRV-14 at a multiplicity of infection (m.o.i.) of 0.13 (virus particles/cell) or mock-infected with medium only. Infected or mock-infected cells were resuspended at 8×10^5 cells per mL, and incubated with appropriate concentrations of the compounds to be tested. Two days later, XTT/PMS was added to test plates and the amount of formazan produced was quantified spectrophotometrically at 450/650 nm. The EC50 value was calculated as the concentration of compound that increased the percentage of formazan production in compound-treated, virus-infected cells to 50% of that produced by compound-free, mock-infected cells. The 50% cytotoxic dose (CC50) was calculated as the concentration of compound that decreased the percentage of formazan produced in compound-treated, mock-infected cells to 50% of that produced by compound-free, mock-infected cells. The therapeutic index (TI) was calculated by dividing the CC50 value by the EC50 value.
# (§5) All strains of human rhinovirus (HRV) for use in this assay were purchased from American Type Culture Collection (ATCC), except for HRV serotype-14 (produced from the infectious cDNA clone constructed by Dr. Robert Rueckert, Institute for Molecular Virology, University of Wisconsin, Madison, Wis.). HRV stocks were propagated and viral assays were performed in H1-HeLa cells (ATCC). Cells were grown in minimal essential medium with 10% fetal bovine serum, available from Life Technologies (Gaithersburg, Md.).
# (§6) The compounds were tested against control compounds WIN 51711, WIN 52084, and WIN 54954 (obtained from Sterling-Winthrop Pharmaceuticals), Pirodavir (obtained from Janssen Pharmaceuticals), and Pleconaril (prepared according to the method described in Diana et al., J. Med. Chem 1995, vol. 38, 1355). […]
# HRV (9) = assay: Antirhinoviral H1-HeLa cell culture assay, HRV serotype 9; type: cell-based, human rhinovirus; conditions: Human rhinovirus sp., H1-HeLa cells, XTT
# Description: as §1, §4, §5, §6
# HRV (16) = assay: Antirhinoviral H1-HeLa cell culture assay, HRV serotype 16; type: cell-based; conditions: Human rhinovirus sp., H1-HeLa cells, XTT
# Description: as §1, §4, §5, §6
# HRV (10) = assay: Antirhinoviral H1-HeLa cell culture assay, HRV serotype 10; type: cell-based, human rhinovirus; conditions: Human rhinovirus sp., H1-HeLa, H1-HeLa cells, XTT
# Outline: as §3
# HRV (87) = assay: Antirhinoviral H1-HeLa cell culture assay, HRV serotype 87; type: cell-based; conditions: Human rhinovirus sp., H1-HeLa cells, XTT
# Description: as §1, §2
# [2] = molecular target: T1, rhinovirus 3C protease from HRV serotype-14 (Human rhinovirus 14, UniProt P03303); assay: Inhibition of rhinovirus 3C protease (FRET assay), serotype 14; type: biochemical; conditions: read-out: Protease Inhibition kobs/[I], HRV serotype-14 3C protease; progress curves in enzyme start experiments
# T1 construct: Recombinant rhinovirus 3C proteases; made in house
# T1 sequence (P03303 1538-1719): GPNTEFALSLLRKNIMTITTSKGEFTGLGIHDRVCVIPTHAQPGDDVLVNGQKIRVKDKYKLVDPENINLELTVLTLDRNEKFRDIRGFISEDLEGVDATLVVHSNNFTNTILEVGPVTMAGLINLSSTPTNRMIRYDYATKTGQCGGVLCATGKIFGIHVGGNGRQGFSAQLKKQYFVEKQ
# Outline: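 Recombinant 3C protease (50-100 nM) with ~1 μM DABCYL-GRAVFQGPVG-EDANS FRET substrate in 50 mM Tris pH 7.6, 1 mM EDTA, 2% DMSO. Cleavage read as increase in EDANS fluorescence. kobs/[I] derived from progress curves of enzyme-initiated reactions.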
# HRV (25) = assay: Antirhinoviral H1-HeLa cell culture assay, HRV serotype 25; type: cell-based; conditions: Human rhinovirus sp., H1-HeLa cells, XTT
# Description: as §1, §2
structure (smiles),measurement,setting,value
"CCOC(=O)/C=C/[C@H](C[C@@H]1CCNC1=O)NC(=O)[C@@H](CC(=O)[C@@H](NC(=O)c1cc(C)on1)C(C)C)Cc1ccc(F)cc1 [Compound B-2, Ethyl-3-{(5′-Methylisoxazole-3′-carbonyl)-L-ValΨ(COCH2)-L-(4-F-Phe)-L-((S)-Pyrrol-Ala)}-E-Propenoate]",EC50,HRV (30),0.04 µM
same,EC50,HRV (38),0.07 µM
same,EC50,"HRV-14; Table 1, XTT dye reduction, read-out: Cell Protection EC50",0.005 µM
same,EC50,"HRV-14; Table 3, XTT, read-out: EC50",0.005 µM
same,EC50,[1],0.01 µM
same,EC50,HRV (3),0.02 µM
same,EC50,HRV (9),0.006 µM
same,EC50,HRV (16),0.01 µM
same,EC50,HRV (10),0.02 µM
same,EC50,HRV (87),0.06 µM
same,kinact/KI,[2],1.09e+06 M⁻¹ s⁻¹
same,EC50,HRV (25),0.03 µM
